Test results taken from the NIST ThermoML archive (doi:10.1021/je500275j).
± gives the expanded uncertainty stated by the source.

Experiment: xn = mol fraction of the nth substance listed
Conditions: 100 kPa, Liquid; for viscosity: Falling or rolling sphere viscometry; for mass density: Vibrating tube method

C1CCC(C2CCCCC2)CC1 [1,1'-bicyclohexyl] + CC1CCCCC1
Conditions	mass density [kg/m3]	viscosity [mPa·s]
293.15 K, x1 = 0.0999	786.65 ± 0.15	0.882 ± 0.012
293.15 K, x1 = 0.2015	802.4 ± 0.15	1.053 ± 0.013
293.15 K, x1 = 0.3012	816.38 ± 0.14	1.269 ± 0.014
293.15 K, x1 = 0.4007	828.96 ± 0.14	1.513 ± 0.015
293.15 K, x1 = 0.4994	840.4 ± 0.14	1.77 ± 0.016
293.15 K, x1 = 0.5986	850.98 ± 0.14	2.12 ± 0.018
293.15 K, x1 = 0.7002	861.06 ± 0.14	2.507 ± 0.021
293.15 K, x1 = 0.7998	870.05 ± 0.14	2.935 ± 0.024
293.15 K, x1 = 0.8998	878.51 ± 0.14	3.428 ± 0.028
293.15 K, x1 = 1	886.39 ± 0.15	4.017 ± 0.033
298.15 K, x1 = 0.0999	782.49 ± 0.15	0.821 ± 0.012
298.15 K, x1 = 0.2015	798.27 ± 0.15	0.977 ± 0.012
298.15 K, x1 = 0.3012	812.39 ± 0.15	1.173 ± 0.013
298.15 K, x1 = 0.4007	825.06 ± 0.14	1.389 ± 0.014
298.15 K, x1 = 0.4994	836.55 ± 0.14	1.616 ± 0.015
298.15 K, x1 = 0.5986	847.21 ± 0.14	1.923 ± 0.017
298.15 K, x1 = 0.7002	857.36 ± 0.14	2.261 ± 0.019
298.15 K, x1 = 0.7998	866.41 ± 0.14	2.628 ± 0.022
298.15 K, x1 = 0.8998	874.87 ± 0.14	3.05 ± 0.025
298.15 K, x1 = 1	882.79 ± 0.15	3.541 ± 0.029
303.15 K, x1 = 0.0999	778.28 ± 0.15	0.768 ± 0.011
303.15 K, x1 = 0.2015	794.17 ± 0.15	0.905 ± 0.012
303.15 K, x1 = 0.3012	808.39 ± 0.15	1.086 ± 0.013
303.15 K, x1 = 0.4007	821.14 ± 0.14	1.28 ± 0.014
303.15 K, x1 = 0.4994	832.74 ± 0.14	1.49 ± 0.015
303.15 K, x1 = 0.5986	843.46 ± 0.14	1.754 ± 0.016
303.15 K, x1 = 0.7002	853.63 ± 0.14	2.056 ± 0.018
303.15 K, x1 = 0.7998	862.73 ± 0.14	2.367 ± 0.02
303.15 K, x1 = 0.8998	871.23 ± 0.15	2.73 ± 0.023
303.15 K, x1 = 1	879.19 ± 0.15	3.145 ± 0.026
308.15 K, x1 = 0.0999	774.06 ± 0.15	0.722 ± 0.011
308.15 K, x1 = 0.2015	790.07 ± 0.15	0.85 ± 0.012
308.15 K, x1 = 0.3012	804.38 ± 0.15	1.01 ± 0.012
308.15 K, x1 = 0.4007	817.21 ± 0.15	1.185 ± 0.013
308.15 K, x1 = 0.4994	828.85 ± 0.14	1.373 ± 0.014
308.15 K, x1 = 0.5986	839.63 ± 0.14	1.609 ± 0.015
308.15 K, x1 = 0.7002	849.8 ± 0.14	1.871 ± 0.017
308.15 K, x1 = 0.7998	859.05 ± 0.14	2.143 ± 0.019
308.15 K, x1 = 0.8998	867.6 ± 0.15	2.459 ± 0.021
308.15 K, x1 = 1	875.6 ± 0.15	2.817 ± 0.023
313.15 K, x1 = 0.0999	769.83 ± 0.16	0.679 ± 0.011
313.15 K, x1 = 0.2015	785.95 ± 0.15	0.795 ± 0.012
313.15 K, x1 = 0.3012	800.36 ± 0.15	0.942 ± 0.012
313.15 K, x1 = 0.4007	813.28 ± 0.15	1.102 ± 0.013
313.15 K, x1 = 0.4994	824.98 ± 0.15	1.268 ± 0.014
313.15 K, x1 = 0.5986	835.85 ± 0.14	1.474 ± 0.015
313.15 K, x1 = 0.7002	846.15 ± 0.14	1.708 ± 0.016
313.15 K, x1 = 0.7998	855.37 ± 0.15	1.953 ± 0.018
313.15 K, x1 = 0.8998	863.97 ± 0.15	2.227 ± 0.019
313.15 K, x1 = 1	872.01 ± 0.15	2.54 ± 0.022
318.15 K, x1 = 0.0999	765.59 ± 0.16	0.641 ± 0.011
318.15 K, x1 = 0.2015	781.82 ± 0.15	0.747 ± 0.011
318.15 K, x1 = 0.3012	796.34 ± 0.15	0.882 ± 0.012
318.15 K, x1 = 0.4007	809.35 ± 0.15	1.025 ± 0.012
318.15 K, x1 = 0.4994	821.14 ± 0.15	1.177 ± 0.013
318.15 K, x1 = 0.5986	832.06 ± 0.15	1.37 ± 0.014
318.15 K, x1 = 0.7002	842.45 ± 0.15	1.582 ± 0.015
318.15 K, x1 = 0.7998	851.7 ± 0.15	1.788 ± 0.017
318.15 K, x1 = 0.8998	860.35 ± 0.15	2.032 ± 0.018
318.15 K, x1 = 1	868.43 ± 0.15	2.302 ± 0.02
